In patent publication US20250074871A1, “PHENETHYLAMINES AND METHODS OF PREPARATION THEREOF” (priority 2022, published 2025):
Read-outs that look alike come from different tables or passages of the source.

How the values were obtained:
5-HT2C receptor = molecular target: T1, 5-HT2C receptor (Homo sapiens, UniProt P28335); test: cell-based; type: cell-based; settings: Table 2; for EC50: at least three replicate trials, read-out: 5-HT2C BRET EC50; for 5-HT2C BRET Eff %: normalized to % 5-HT stimulation
T1 construct: expressed in transfected cells; host or cells: HEK293T
T1 sequence (P28335 33-458): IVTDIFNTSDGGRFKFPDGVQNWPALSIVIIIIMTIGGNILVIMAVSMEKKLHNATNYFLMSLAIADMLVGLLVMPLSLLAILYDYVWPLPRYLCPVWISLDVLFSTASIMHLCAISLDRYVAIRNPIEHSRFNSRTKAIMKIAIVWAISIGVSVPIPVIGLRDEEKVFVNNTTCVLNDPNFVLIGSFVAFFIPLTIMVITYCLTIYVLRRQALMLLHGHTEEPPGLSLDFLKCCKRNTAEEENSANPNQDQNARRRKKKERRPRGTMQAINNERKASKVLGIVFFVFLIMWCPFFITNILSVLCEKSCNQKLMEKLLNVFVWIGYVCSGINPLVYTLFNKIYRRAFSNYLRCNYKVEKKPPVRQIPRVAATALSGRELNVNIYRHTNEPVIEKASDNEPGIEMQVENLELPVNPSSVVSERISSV

5-HT2A receptor = molecular target: T2, 5-HT2A receptor (Homo sapiens, UniProt P28223); test: 5-HT2A Gq dissociation BRET functional assay; type: cell-based; settings: for 5-HT2A BRET Eff %: normalized to % 5-HT stimulation
T2 construct: expressed in transfected cells; host or cells: HEK293T
T2 sequence (P28223 whole entry): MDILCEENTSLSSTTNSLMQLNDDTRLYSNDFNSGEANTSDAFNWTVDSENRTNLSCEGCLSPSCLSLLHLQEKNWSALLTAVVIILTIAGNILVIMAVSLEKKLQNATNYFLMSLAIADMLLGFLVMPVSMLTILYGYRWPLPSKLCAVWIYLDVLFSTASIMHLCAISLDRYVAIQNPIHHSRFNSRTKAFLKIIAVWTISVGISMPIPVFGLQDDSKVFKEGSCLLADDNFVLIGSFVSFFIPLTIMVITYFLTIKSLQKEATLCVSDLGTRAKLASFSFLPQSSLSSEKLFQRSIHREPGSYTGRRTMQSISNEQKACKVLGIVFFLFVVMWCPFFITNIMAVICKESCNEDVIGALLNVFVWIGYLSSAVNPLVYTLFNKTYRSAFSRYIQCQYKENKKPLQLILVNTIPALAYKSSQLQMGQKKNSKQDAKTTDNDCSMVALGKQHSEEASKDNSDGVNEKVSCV

[1] = molecular target: T3, human ether-a-go-go-related gene (hERG) K+ channel (Homo sapiens, UniProt Q12809); test: Eurofins hERG Qube APC Assay; type: cell-based; settings: for IC50 (hERG)/EC50 (5-HT2A) ratio: Table 4; for hERG risk potential: based on IC50 (hERG)/EC50 (5-HT2A) ratio
T3 construct: Eurofins
T3 sequence (Q12809 whole entry): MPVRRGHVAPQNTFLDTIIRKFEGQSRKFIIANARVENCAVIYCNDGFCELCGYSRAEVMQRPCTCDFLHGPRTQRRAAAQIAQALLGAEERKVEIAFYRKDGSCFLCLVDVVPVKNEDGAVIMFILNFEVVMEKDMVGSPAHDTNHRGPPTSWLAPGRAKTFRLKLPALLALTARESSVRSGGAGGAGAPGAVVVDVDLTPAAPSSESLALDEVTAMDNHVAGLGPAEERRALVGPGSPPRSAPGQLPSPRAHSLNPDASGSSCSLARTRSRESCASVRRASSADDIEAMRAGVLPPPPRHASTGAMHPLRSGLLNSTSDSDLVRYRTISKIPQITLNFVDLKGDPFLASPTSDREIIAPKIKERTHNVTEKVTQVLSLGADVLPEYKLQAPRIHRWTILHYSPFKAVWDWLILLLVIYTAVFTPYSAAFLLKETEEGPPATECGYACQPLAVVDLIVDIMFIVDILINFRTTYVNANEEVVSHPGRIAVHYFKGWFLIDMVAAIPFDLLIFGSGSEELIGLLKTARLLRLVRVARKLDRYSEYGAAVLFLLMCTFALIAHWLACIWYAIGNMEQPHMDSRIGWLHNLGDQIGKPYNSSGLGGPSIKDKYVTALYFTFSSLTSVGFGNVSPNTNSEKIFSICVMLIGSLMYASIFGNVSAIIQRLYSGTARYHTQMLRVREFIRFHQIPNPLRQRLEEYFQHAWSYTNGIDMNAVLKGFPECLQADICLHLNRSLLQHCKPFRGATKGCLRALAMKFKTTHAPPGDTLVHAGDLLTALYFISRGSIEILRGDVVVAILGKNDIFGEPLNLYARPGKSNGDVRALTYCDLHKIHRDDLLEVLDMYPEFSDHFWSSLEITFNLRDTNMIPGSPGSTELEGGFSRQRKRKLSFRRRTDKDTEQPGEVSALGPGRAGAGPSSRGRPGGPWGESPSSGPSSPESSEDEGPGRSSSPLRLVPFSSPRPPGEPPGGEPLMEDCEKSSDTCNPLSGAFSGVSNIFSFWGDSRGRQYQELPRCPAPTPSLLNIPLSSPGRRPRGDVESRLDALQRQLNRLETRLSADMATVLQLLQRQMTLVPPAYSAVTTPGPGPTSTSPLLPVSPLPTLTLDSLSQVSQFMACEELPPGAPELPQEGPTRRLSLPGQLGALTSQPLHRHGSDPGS
From the text: As used herein and unless otherwise specified, the term “hERG risk” refers to the risk of a compound potentially inhibiting the human ether-a-go-go-related gene (hERG) K^+ channel, thereby leading to QT prolongation.
As a result of, many compounds disclosed in Table 1 and Table 2 were screened for the potential of “hERG risk” using pharmacological assays (e.g. Eurofins™ hERG Qube APC Assay). […].

5-HT2B receptor = molecular target: T4, 5-HT2B receptor (Homo sapiens, UniProt P41595); test: 5-HT2B Gq dissociation BRET functional assay; type: cell-based; settings: Table 2; for EC50: at least three replicate trials; for 5-HT2B BRET Eff %: normalized to % 5-HT stimulation
T4 construct: expressed in transfected cells; host or cells: HEK293T
T4 sequence (P41595 whole entry): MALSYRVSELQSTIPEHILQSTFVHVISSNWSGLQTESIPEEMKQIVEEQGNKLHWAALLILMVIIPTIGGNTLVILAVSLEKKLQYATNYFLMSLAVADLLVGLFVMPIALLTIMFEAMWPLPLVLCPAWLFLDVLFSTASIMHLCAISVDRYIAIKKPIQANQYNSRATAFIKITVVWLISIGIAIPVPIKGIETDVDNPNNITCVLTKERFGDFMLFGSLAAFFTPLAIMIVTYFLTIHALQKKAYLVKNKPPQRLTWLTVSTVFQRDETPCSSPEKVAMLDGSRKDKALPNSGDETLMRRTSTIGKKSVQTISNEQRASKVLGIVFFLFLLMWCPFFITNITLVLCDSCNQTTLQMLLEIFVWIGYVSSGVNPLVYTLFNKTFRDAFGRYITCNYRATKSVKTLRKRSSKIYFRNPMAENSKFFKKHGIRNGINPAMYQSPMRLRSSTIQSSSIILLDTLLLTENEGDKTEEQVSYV

mice = test: head-twitch response (HTR) in mice; type: in vivo, male C57BL/6J mice; settings: Mus musculus; mice
Method: As used herein and unless otherwise specified, the term “HTR” refers to head-twitch response, which is a measurement of 5-HT2A activation in vivo.
As used herein and unless otherwise specified, the term “mice” refers to male C57BL/6J mice (6-8 weeks old).
HTR was assessed using a head-mounted neodymium magnet and a magnetometer detection coil, as described in Halberstadt et al., Psychopharmacology (Berl.), 2013, 227(4): 727-739. Table 8 below summarizes the ED50 in head twitch in mice of various compounds disclosed herein as compared to psilocybin. FIG. 3 illustrates the HTR relative to dose for compound 109: […]

[2] = Table 2, at least three replicate trials, read-out: 5-HT2A BRET EC50
[3] = Table 4, unit inferred, read-out: EC50 BRET 2A
[4] = 5-HT2A BRET EC50 (nM), Table 2, at least three replicate trials
[5] = EC50 BRET 2A, Table 4, unit inferred

| SMILES | EC50 (5-HT2C receptor) [nM] | 5-HT2C BRET Eff % (5-HT2C receptor) [%] | EC50 (5-HT2A receptor; [2]) [nM] | 5-HT2A BRET Eff % (5-HT2A receptor; Table 2) [%] | EC50 (5-HT2A receptor; [3]) [nM] | IC50 [1] [nM] | IC50 (hERG)/EC50 (5-HT2A) ratio [1] | hERG risk potential [1] | EC50 (5-HT2B receptor; read-out: 5-HT2B BRET EC50) [nM] | 5-HT2B BRET Eff % (5-HT2B receptor) [%] | ED50 (mice) [mg/kg] | EC50 (5-HT2A receptor; [4]) [nM] | EC50 (5-HT2A receptor; [5]) [nM] | 5-HT2B BRET EC50 (nM) / Eff % (5-HT2B receptor) | EC50 (5-HT2B receptor; 5-HT2B BRET EC50 (nM)) [nM] |
| --- | --- | --- | --- | --- | --- | --- | --- | --- | --- | --- | --- | --- | --- | --- | --- |
| Oc1ccccc1CNCC(O)c1ccc(C(F)(F)F)cc1OCc1ccccc1 (stereo not shown) [Reference Compound 1a, reference compound] | 326 | 105 | 451 | 91 | 451 | 2300 | 5 | High (compounds exhibiting a IC50 (hERG) /EC50 (5-HT2A) ratio of less than or equal to 150 are generally indicative of high hERG risk potential) | 342 | 56 |  |  |  |  |  |
| CN(C)CCc1c[nH]c2cccc(OP(=O)(O)O)c12 [Psilocybin, psilocybin, reference compound] |  |  |  |  |  |  |  |  |  |  | 0.38 |  |  |  |  |
| COc1cc(C#N)ccc1CCNCc1cccc2c1CCO2 [Cpd #63] | 2090 | 78 |  | 62 |  | 1600 | 12 | High (compounds exhibiting a IC50 (hERG) /EC50 (5-HT2A) ratio of less than or equal to 150 are generally indicative of high hERG risk potential) |  |  |  | 135 | 135 | Inactive |  |
| COc1cc(C#N)ccc1CCNCc1cccc2occc12 [Cpd #64] | 357 | 104 | 29.8 | 82 | 29.8 | 900 | 30 | High (compounds exhibiting a IC50 (hERG) /EC50 (5-HT2A) ratio of less than or equal to 150 are generally indicative of high hERG risk potential) | 8920 | 93 |  |  |  |  |  |
| COc1cc(C#N)ccc1CCNCc1cccc2c1OCO2 [Cpd #65] | 496 | 97 |  | 84 |  | 2000 | 102 | High (compounds exhibiting a IC50 (hERG) /EC50 (5-HT2A) ratio of less than or equal to 150 are generally indicative of high hERG risk potential) |  |  |  | 19.7 | 19.7 | Inactive |  |
| COc1cc(C#N)ccc1CCNCc1ccccc1OC [Cpd #27] | 15.9 | 109 |  | 96 |  | 2000 | 476 |  |  | 66 | 3 | 4.2 | 4.2 |  | 423 |
